Laboratory results published in patent publication US20110246078A1, “MITOCHONDRIA KATP ION CHANNEL AS A DRUG TARGET FOR PREVENTING LIVER DISEASES AND METHODS TO SCREEN MITOCHONDRIA KATP MODULATORS” (priority 2010, published 2011).
Entries after “also recorded” stand apart in the source; their conditions may differ.

What follows are compounds tested on mito-KATP channels in HepG2C3A cells (assay: Label-free RWG biosensor (Epic) DMR cellular assay, agonism mode). Conditions: 28° C.
Type: cell-based, human
Source text: (§1) Epic® wavelength interrogation system (Corning Inc., Corning, N.Y.) was used for whole cell sensing. This system consists of a temperature-control unit, an optical detection unit, and an on-board liquid handling unit with robotics. The detection unit is centered on integrated fiber optics, and enables kinetic measures of cellular responses with a time interval of ˜15sec. The compound solutions were introduced by using the on-board liquid handling unit (i.e., pippetting).
The RWG biosensor is capable of detecting minute changes in local index of refraction near the sensor surface. Since the local index of refraction within a cell is a function of density and its distribution of biomass (e.g., proteins, molecular complexes), the biosensor exploits its evanescent wave to non-invasively detect ligand-induced dynamic mass redistribution in native cells. […]
For biosensor cellular assays, compound solutions were made by diluting the stored concentrated solutions with the HBSS (1× Hanks balanced salt solution, plus 20 mM Hepes, pH 7.1), and transferred into a 384well polypropylene compound storage plate to prepare a compound source plate. […] Both the cell assay plate and the compound source plate(s) were then incubated in the hotel of the reader system. After incubation the baseline wavelengths of all biosensors in the cell assay microplate were recorded and normalized to zero. […]

Structure (SMILES) | pinacidil induced DMR signal (amplitudes and kinetics)
CC(N/C(=N\C#N)Nc1ccncc1)C(C)(C)C (centres unmarked) [pinacidil] | robust; also recorded: concentration dependent

These compounds were tested on pinacidil induced DMR signal in HepG2C3A cells (assay: Label-free RWG biosensor DMR assay, modulation of the pinacidil induced DMR signal). Conditions: pre-incubation with compound, pinacidil 40 μM.
Type: cell-based, human
Description: Transfection of siRNAs was performed using N-TER Nanoparticle siRNA Transfection System (Cat#N2913) from Sigma-Aldrich Inc. following the manufacturer's instructions. Briefly, 5000 cells were plated in each well of Epic 384-well plates. Cells were transfected with 50 nM siRNA the next day and incubated in siRNA containing medium for 24 hrs before replaced with fresh cell culture medium. Epic cell assay was performed 48 hours after transfection.
as §1
The RWG biosensor is capable of detecting minute changes in local index of refraction near the sensor surface. Since the local index of refraction within a cell is a function of density and its distribution of biomass (e.g., proteins, molecular complexes), the biosensor exploits its evanescent wave to non-invasively detect ligand-induced dynamic mass redistribution in native cells. The evanescent wave extends into the cells and exponentially decays over distance, leading to a characteristic sensing volume of ˜150 nm, implying that any optical response mediated through the receptor activation only represents an average over the portion of the cell that the evanescent wave is sampling. The aggregation of many cellular events downstream the receptor activation determines the kinetics and amplitudes of a ligand-induced DMR.
For biosensor cellular assays, compound solutions were made by diluting the stored concentrated solutions with the HBSS (1× Hanks balanced salt solution, plus 20 mM Hepes, pH 7.1), and transferred into a 384well polypropylene compound storage plate to prepare a compound source plate. Two compound source plates were made separately when a two-step assay was performed. In parallel, the cells were washed twice with the HBSS and maintained in 30 μl of the HBSS to prepare a cell assay plate. Both the cell assay plate and the compound source plate(s) were then incubated in the hotel of the reader system. After incubation the baseline wavelengths of all biosensors in the cell assay microplate were recorded and normalized to zero. Afterwards, a 2 to 10 min continuous recording was carried out to establish a baseline, and to ensure that the cells reached a steady state. Cellular responses were then triggered by transferring 10 μl of the compound solutions into the cell assay plate using the on-board liquid handler.
All studies were carried out under controlled temperature (28° C.). At least two independent sets of experiments, each with at least three replicates, were performed.

Structure (SMILES) | effect on the pinacidil induced DMR signal
C[C@@H](N)[C@H]1CC[C@H](C(=O)Nc2ccncc2)CC1 [Y-27632] | reduced the pinacidil induced DMR signal dose-dependently
N#C/C(=C/c1ccc(O)c(O)c1)C(=O)NCc1ccccc1 [AG490] | dose-dependently reduced
CCCCNC(=O)NS(=O)(=O)c1ccc(C)cc1 [tobutamide] | dose-dependently inhibited
C=C1[C@@H](C)[C@H]2[C@H](Cc3ccccc3)NC(=O)[C@]23OC(=O)/C=C/[C@H](O)CCC[C@@H](C)C/C=C/[C@H]3[C@@H]1O [cytochalasin B] | dose-dependently reduce
C1CCC(N=C(NC23CC4CC(CC(C4)C2)C3)N2CCOCC2)CC1.Cl [U-37883A] | no effect
C/C1=C/C(=O)O[C@@H]2C[C@@H](CC[C@H](C)/C=C\C=C\CC1)O[C@@](O)([C@@H]1CSC(=O)N1)C2 [latrunculin A] | dose-dependently reduce
Cc1ccc(S(=O)(=O)NC(=O)NN2CCCCCC2)cc1 [tolazamide] | dose-dependent inhibition; also recorded: dose-dependently inhibited
